Where a SMILES comes first, the peptide text is derived from it.
Columns and labels:
[1] = system: Cryptococcus neoformans VKM Y-2755; format: cell-based; conditions: inhibition curves (Figure 4)
Method: (§1) The antimicrobial activity of synthetic peptides was tested against a panel of human and plant pathogens. Among them were the yeasts Candida albicans VKM Y-2994 and Cryptococcus neoformans VKM Y-2755, the plant pathogenic bacteria Clavibacter michiganensis subsp. michiganensis VKM Ac-1403, Pseudomonas savastanoi pv. savastanoi VKM B-1546 and Pectobacterium carotovorum subsp. carotovorum VKM B-1247, and four Fusarium species (F. oxysporum VKM F-137, F. culmorum VKM F-2303, F. solani VKM F-142 and F. verticillioides VKM F-670), which cause diseases in plants and humans. The antimicrobial activity was first measured at the peptide concentration of 300 µM (Figure 3).
(§2) The antimicrobial activity of synthetic peptides was tested against the yeasts Candida albicans VKM Y-2994 and Cryptococcus neoformans VKM Y-2755, the bacteria Pseudomonas savastanoi pv. savastanoi VKM B-1546, Pectobacterium carotovorum subsp. carotovorum VKM B-1247 and Clavibacter michiganensis subsp. michiganensis VKM Ac-1403, and four Fusarium species: F. culmorum VKM F-2303, F. oxysporum VKM F-137, F. solani VKM F-142 and F. verticillioides VKM F-670. All cultures were obtained from the All-Russian Collection of Microorganisms (VKM). The details of the production and storage of cultures of microorganisms used in this study are described at the VKM Home page. Antimicrobial assays were accomplished according to the procedure described earlier. In short, yeasts were grown on the YPD-P medium and the bacteria P. carotovorum and Cl. michiganensis were cultured on a modified YPD-P medium. The Fusarium fungi were grown on potato dextrose agar at 25 °C for 7–8 days, and spores were washed off from the surface of the mycelia with sterile, distilled water. The antimicrobial activity of the peptides was measured in immunoassay microtiter plates according to the protocol of Broekaert et al.. With yeasts and bacteria, each well contained 10 µL of the tested peptide solution (final concentrations of 10–300 µM) in water, 80 µL of the medium and 10 µL of the microbial suspension. The plates were incubated at 30 °C for 24 h, and the absorbance of the suspension was measured on an Efos 9305 spectrophotometer (Sapphire, Moscow, Russia) at 594 nm. For Fusarium species, the wells of a microtiter plate were filled with 90 µL of the fungal spore suspension in half-strength potato dextrose broth at a concentration of 2000–3000 spores in 100 µL and 10 µL of aqueous solutions of peptides at final concentrations of 10–300 µM. After 38 h of incubation, the absorbance was recorded at 595 nm on a FilterMax F5 Multi-Mode Microplate Reader (Molecular Devices, San Jose, CA, USA). Antimicrobial activity is expressed in IC50 values, which show the concentration necessary for 50% inhibition of the pathogen growth; this was determined from a graph showing the activity dependence on peptide concentration.
(§3) For each pathogen, experiments on the peptide antimicrobial activity evaluation were carried out in triplicate per treatment. Mean values, standard deviations (SD), and the significance of differences (p ≤ 0.05) of the means between treatments and controls (t-test for independent variables) were determined using STATISTICA v. 6.1 software (StatSoft Inc., Tulsa, OK, USA).

[2] = system: Pseudomonas savastanoi pv. savastanoi VKM B-1546; format: cell-based; conditions: 300 µM peptide; 30 °C, 24 h, absorbance 594 nm; vs control without peptide; triplicate, mean
Method: as §1, §2, §3

[3] = system: Clavibacter michiganensis subsp. michiganensis VKM Ac-1403; assay: Growth inhibition of Cl. michiganensis in microtiter plates; format: cell-based; conditions: inhibition curves (Figure 4)
Method: as §1
The antimicrobial activity of synthetic peptides was tested against the yeasts Candida albicans VKM Y-2994 and Cryptococcus neoformans VKM Y-2755, the bacteria Pseudomonas savastanoi pv. savastanoi VKM B-1546, Pectobacterium carotovorum subsp. carotovorum VKM B-1247 and Clavibacter michiganensis subsp. michiganensis VKM Ac-1403, and four Fusarium species: F. culmorum VKM F-2303, F. oxysporum VKM F-137, F. solani VKM F-142 and F. verticillioides VKM F-670. All cultures were obtained from the All-Russian Collection of Microorganisms (VKM). […] The antimicrobial activity of the peptides was measured in immunoassay microtiter plates according to the protocol of Broekaert et al.. […] The plates were incubated at 30 °C for 24 h, and the absorbance of the suspension was measured on an Efos 9305 spectrophotometer (Sapphire, Moscow, Russia) at 594 nm. […] After 38 h of incubation, the absorbance was recorded at 595 nm on a FilterMax F5 Multi-Mode Microplate Reader (Molecular Devices, San Jose, CA, USA). […]
as §3, with “6.1 software (StatSoft Inc., Tulsa, OK, USA).” left out

Cr. neoformans cells = assay: Propidium iodide staining, fluorescence microscopy; format: cell-based, Cryptococcus neoformans; conditions: peptide 300 µM, 30 °C, 1 h, 0.03 mM PI 15 min
Method: (§4) Their ability to disturb the integrity of pathogen membranes was assayed by staining with propidium iodide of C. albicans and Cr. neoformans cells preliminarily incubated with the peptides. The results were visualized by fluorescent microscopy and quantified by flow cytometry (Figure 5, Figure 6 and Figure 7).
(§5) Staining of yeast cells with propidium iodide in the presence of the γ-core peptides was carried out according to the protocol described earlier. C. albicans or Cr. neoformans cells (24 h culture in YPD-P at a cell concentration of 2 × 10^8/mL) were incubated with the peptide at a concentration of 300 µM at 30 °C for 1 h. After incubation, 1 mL of the cells was stained with 0.03 mM propidium iodide (Sigma, St. Louis, MO, USA). The staining proceeded for 15 min at 30 °C. The fluorescence was recorded on an AXIO Imager A1 fluorescence microscope (ZEISS, Göttingen, Germany) using a Zeiss filter set 56 HE.

C. albicans cells = assay: Propidium iodide staining, fluorescence microscopy; format: cell-based, Candida albicans; conditions: peptide 300 µM, 30 °C, 1 h, 0.03 mM PI 15 min
Method: as §4, §5

## C[C@H](NC(=O)[C@H](CCCNC(=N)N)NC(=O)[C@H](CCCCN)NC(=O)[C@H](CS)NC(=O)[C@H](Cc1ccccc1)NC(=O)[C@H](CS)NC(=O)[C@H](CCCCN)NC(=O)[C@H](CCCNC(=N)N)NC(=O)[C@H](C)NC(=O)[C@H](Cc1ccccc1)NC(=O)[C@H](CC(N)=O)NC(=O)[C@H](Cc1c[nH]cn1)NC(=O)[C@@H](NC(=O)[C@H](Cc1c[nH]cn1)NC(=O)[C@H](CS)NC(=O)[C@H](CCC(=O)O)NC(=O)CN)[C@@H](C)O)C(=O)N[C@@H](CS)C(=O)O [DEFL1-36_65-82] (H-GECHTHNFARKCFCKRAC-OH; N-terminus and C-terminus assumed)
[1]; peptide 50 µM
  Inhibition of Cr. neoformans at 50 µM: complete inhibition
[2]
  Pathogen inhibition, % (Ps. savastanoi): failed to suppress
[3]; peptide 100 µM
  Inhibition of Cl. michiganensis at 100 µM: complete inhibition

## C[C@H](N)C(=O)N[C@@H](CS)C(=O)N1CCC[C@H]1C(=O)NCC(=O)N[C@@H](C)C(=O)N[C@@H](CS)C(=O)N1CCC[C@H]1C(=O)N[C@@H](C)C(=O)N1CCC[C@H]1C(=O)NCC(=O)NCC(=O)N[C@@H](CO)C(=O)N[C@@H](Cc1ccc(O)cc1)C(=O)N[C@H](C(=O)N[C@@H](CC(N)=O)C(=O)N[C@@H](CCCNC(=N)N)C(=O)NCC(=O)N[C@@H](CS)C(=O)N[C@@H](CCC(N)=O)C(=O)N[C@@H](CCCCN)C(=O)N[C@@H](CCCCN)C(=O)N[C@@H](Cc1ccc(O)cc1)C(=O)N[C@@H](CCC(N)=O)C(=O)N[C@@H](CS)C(=O)N[C@@H](CCCNC(=N)N)C(=O)O)[C@@H](C)O [DEFL4-20_86-110] (H-ACPGACPAPGGSYTNRGCQKKYQCR-OH; N-terminus and C-terminus assumed)
[1]; highest tested concentration (300 µM)
  Inhibition of Cr. neoformans at the highest tested concentration: 95%
Cr. neoformans cells
  Membrane permeabilization of Cr. neoformans cells (PI staining): induced membrane permeabilization
C. albicans cells
  Membrane permeabilization of C. albicans cells (PI staining): induced membrane permeabilization
[3]; highest tested concentration of 300 µM
  Inhibition of Cl. michiganensis at the highest tested concentration: 91%
